Measured values: US5571799A, “(2'-5') oligoadenylate analogues useful as inhibitors of host-v5.-graft response” (Basco, Ltd., priority 1994, dated 1996)
“Also recorded” adds a separate entry of the source.

How the values were obtained:
[1] = system: β-lymphocytes (murine splenocytes) stimulated with lipopolysaccharide; assay: In vitro blast-transformation of murine lymphocytes, LPS (β-lymphocyte mitogen), [3H]-thymidine; format: cell-based, mouse (CBA); settings: for DNA synthesis at [^3 H]-thymidine [incorporated counts/min.]: LPS 0.1 μg/ml
Text: The immune reactions in an organism begins with the division of lymphocytes. In vitro investigation of the lymphocyte blast-transformationreaction under the influence of mitogens makes it possible to use this model system to select chemically synthesized 2'-5'A3 analogues which suppress division of lymphocytes. Using Concanavalin A and lipopolysaccharide as mitogens, the effect of analogues on the division of T- and β-lymphocytes may be investigated.
CBA mice 8-10 weeks old were used for these experiments. A suspension of mouse splenocytes were obtained by gently teasing spleens with forceps. Lymphocytes cultivated in flat-bottomed 96-well plates (Linbro) in RPMI-1640 medium (Flow Lab.) were supplemented with 2 mM 1-glutamine, 10 μg/ml gentamicin, 10^-5 M 2-mercaptoethanol and 10% heat inactivated fetal calf serum (Flow Lab). Cultures were maintained in 5% CO2 at 37° C. One μCi of ^3 H-thymidine (Isotop®) was added to each well 4 hours before the end of the incubation period. Incorporation of ^3 H-thymidine into cellular DNA was determined by liquid scintillation counting using standard techniques. Oligoadenylate was added to the medium at the beginning of culturing to achieve the final concentration.
(Con A being a mitogen for T-lymphocytes and LPS being a mitogen for β-lymphocytes).

[2] = system: α-interferon and γ-interferon; assay: Immune system of monkeys: α- and γ-interferon; format: in vivo, Macaque Rh. monkeys
Method: Immunosuppressive activity of the prototype 2'-5'A3 and two analogues (2'-5')A2 Ar-epoxy and (2'-5')A2 A^l-epoxy were investigated in monkeys. The experiments were performed on 4 year-old Macaque Rh. monkeys. The levels of the principal subpopulations of T-lymphocytes, IgA, IgG, IgM and the amount of α- and γ-interferon and interleukin II after administration (2'-5')olygoadenylate and its analogies at the concentration of 50 and 25 μg/kg of the body weight was investigated.
Serum levels of IgG, IgA, IgM were determined by radial immunodiffusion using antisera against human immunoglobulin A, M, G. The amount of interferon and interleukine-II were determined by the method of Lopez-Botet M. et al., 1982.

[3] = system: T-helper and T-killer cells; assay: T-helper and T-killer cells in monkeys after kidney transplantation; format: in vivo, Macaque Rh. monkeys; settings: 50 μg/kg IV every 48 hours; first two post-surgical weeks
Method: The experiments were performed on 4 year-old Macaque Rh. monkeys. Each cohort consisted of 3 animals. […] The results of the experiments were evaluated clinically: by the presence or absence of urination from the ureterocutaneostoma.
During our experiments we have divided monkeys into two groups, three monkeys to each group. For the first group (2'-5')A2 Ar-epoxy was administered intravenously at concentration of 50 μg/kg two days before the operation and at the second, sixth, and twelfth day after the operation and then every sixth day. […] After transplantation kidney functions were restored within 10 hours.
The administration schedule of (2'-5')A2 Ar-epoxy was modified slightly for the second group of monkeys. The preparation was injected two days before the operation and every other day at a concentration of 50 μg/kg during the entire post-transplantation period. […] The number of T-helpers dropped correspondingly from 37% to 7%. […] During the entire postoperative period, this activity tendency continues.

[4] = single IV 25 μg/kg, day 0 (baseline)
[5] = single IV 50 μg/kg, day 0 (baseline)

In the case of “Adenylyl (2'-5')adenylyl (2'-5')-9-(2,3-anhydro-β-D-ribofuranosyl) adenine disodium salt [(2'-5')A2 Ar-epoxy]”, the “DNA synthesis at [^3 H]-thymidine [incorporated counts/min.]” value (“DNA synthesis … [incorporated counts/min.]” for short) ([1]; 5 × 10^-6 M, control 27,133) is reported as 21,464 counts/min, the “inhibition of lymphocyte blast-transformation, in words” value ([1]; LPS, β-lymphocytes) is reported as “weaker effect of the division of β-lymphocytes” and the “DNA synthesis … [incorporated counts/min.]” value ([1]; Table 4, 5 × 10^-6 M, control 10,766) is reported as 7,665 counts/min. For the same substance, the “DNA synthesis … [incorporated counts/min.]” value ([1]; Table 4, 5 × 10^-7 M, control 10,766) was 6,018 counts/min, the “DNA synthesis … [incorporated counts/min.]” value ([1]; Table 4, 5 × 10^-8 M, control 10,766) was 4,767 counts/min and the “DNA synthesis … [incorporated counts/min.]” value ([1]; Table 4, 5 × 10^-9 M, control 10,766) was 7,348 counts/min. The “DNA synthesis … [incorporated counts/min.]” value ([1]; Table 4, 5 × 10^-10 M, control 10,766) was 672 counts/min, the “DNA synthesis … [incorporated counts/min.]” value ([1]; Table 5, 5 × 10^-6 M, control 5,513) was 131 counts/min and the “DNA synthesis … [incorporated counts/min.]” value ([1]; Table 5, 5 × 10^-7 M, control 5,513) was 292 counts/min. The “DNA synthesis … [incorporated counts/min.]” value ([1]; Table 5, 5 × 10^-8 M, control 5,513) was 655 counts/min, the “DNA synthesis … [incorporated counts/min.]” value ([1]; Table 5, 5 × 10^-9 M, control 5,513) was 3,342 counts/min and the “DNA synthesis … [incorporated counts/min.]” value ([1]; Table 5, 5 × 10^-10 M, control 5,513) was 1,213 counts/min. The “effect on interferon, in words” value ([2]; monkeys, single IV, two weeks, disodium salt) was “stimulates the level of α-interferon and γ-interferon in blood lymphocytes for a period of two weeks; also recorded: the quantity of α-interferon in blood plasma tends to normalize; also recorded: does not suppress the production of γ-interferon”, the α-interferon of lymphocytes [2, 4] was 16 Units per 10,000 lymphocytes and the α-interferon of plasma [2, 4] was 8 Units per 10,000 lymphocytes. For the same substance, the γ-interferon of lymphocytes [2, 4] was 4 Units per 10,000 lymphocytes, the α-interferon of lymphocytes ([2]; single IV 25 μg/kg, day 1) was 32 Units per 10,000 lymphocytes and the α-interferon of plasma ([2]; single IV 25 μg/kg, day 1) was 8 Units per 10,000 lymphocytes. The γ-interferon of lymphocytes ([2]; single IV 25 μg/kg, day 1) was 16 Units per 10,000 lymphocytes, the α-interferon of lymphocytes ([2]; single IV 25 μg/kg, day 2) was 32 Units per 10,000 lymphocytes and the α-interferon of plasma ([2]; single IV 25 μg/kg, day 2) was 4 Units per 10,000 lymphocytes. For the same substance, the γ-interferon of lymphocytes ([2]; single IV 25 μg/kg, day 2) was 16 Units per 10,000 lymphocytes, the α-interferon of lymphocytes ([2]; single IV 25 μg/kg, day 12) was 32 Units per 10,000 lymphocytes and the α-interferon of plasma ([2]; single IV 25 μg/kg, day 12) was 4 Units per 10,000 lymphocytes. The γ-interferon of lymphocytes ([2]; single IV 25 μg/kg, day 12) was 16 Units per 10,000 lymphocytes, the α-interferon of lymphocytes ([2]; single IV 25 μg/kg, day 21) was 16 Units per 10,000 lymphocytes and the α-interferon of plasma ([2]; single IV 25 μg/kg, day 21) was 4 Units per 10,000 lymphocytes. For the same substance, the γ-interferon of lymphocytes ([2]; single IV 25 μg/kg, day 21) was 8 Units per 10,000 lymphocytes, the α-interferon of lymphocytes [2, 5] was 32 Units per 10,000 lymphocytes and the α-interferon of plasma [2, 5] was 16 Units per 10,000 lymphocytes. The γ-interferon of lymphocytes [2, 5] was 4 Units per 10,000 lymphocytes, the α-interferon of lymphocytes ([2]; single IV 50 μg/kg, day 1) was 32 Units per 10,000 lymphocytes and the α-interferon of plasma ([2]; single IV 50 μg/kg, day 1) was 32 Units per 10,000 lymphocytes. The γ-interferon of lymphocytes ([2]; single IV 50 μg/kg, day 1) was 8 Units per 10,000 lymphocytes, the α-interferon of lymphocytes ([2]; single IV 50 μg/kg, day 2) was 64 Units per 10,000 lymphocytes and the α-interferon of plasma ([2]; single IV 50 μg/kg, day 2) was 4 Units per 10,000 lymphocytes. For the same substance, the γ-interferon of lymphocytes ([2]; single IV 50 μg/kg, day 2) was 32 Units per 10,000 lymphocytes, the α-interferon of lymphocytes ([2]; single IV 50 μg/kg, day 12) was 64 Units per 10,000 lymphocytes and the α-interferon of plasma ([2]; single IV 50 μg/kg, day 12) was 4 Units per 10,000 lymphocytes. The γ-interferon of lymphocytes ([2]; single IV 50 μg/kg, day 12) was 32 Units per 10,000 lymphocytes, the α-interferon of lymphocytes ([2]; single IV 50 μg/kg, day 21) was 32 Units per 10,000 lymphocytes and the α-interferon of plasma ([2]; single IV 50 μg/kg, day 21) was 4 Units per 10,000 lymphocytes. The γ-interferon of lymphocytes ([2]; single IV 50 μg/kg, day 21) was 8 Units per 10,000 lymphocytes and the “retained level of T-helper and T-killer cells relative to normal value” [3] was 30%.
